Here are results for three molecules from PMC12005787, “Synthetic Lethality of SHP2 and XIAP Suppresses Proliferation and Metastasis in KRAS‐mutant Nonsmall Cell Lung Cancer” (Advanced Science, 2025).

In assay [1] the test system is SHP2 phosphorylation in HeLa cells. The assay can be described thus: SHP2 phosphorylation in EGF-stimulated HeLa cells (immunoblotting). It is filed as cell-based. To be noted: for effect on EGF-induced phosphorylation of SHP2 (Y542 and Y580) and ERK: pretreatment 2 h, SHP099 20 µM, embelin different concentrations, EGF 10 ng mL^−1 2 h; for effect on the level of SHP2 phosphorylation: 20 µM for 2 h before EGF (10 ng mL^−1). The source says: Figure 1 Embelin inhibits KRAS‐mutant tumor development. A) Correlation detection between mRNA expression of PTPN11 and KRAS in patients with LUAD (n = 706) using IlluminaHiSeq analysis with data derived from TCGA database. B) Correlation and number at risk of SHP2 expression with the overall survival probability of KRAS mutant lung cancer patients (n = 92) in the TCGA database. C) Protein expression and phosphorylation levels of SHP2 in RAS‐WT, NRAS, HRAS, and KRAS‐mutant cells. D) Effect of 3471 bioactive compounds at 10 µM against SHP2, with Na3VO4 serving as a control. Z’ factor values for 69 plates screened, Z’ = 0.81, S/N = 40.8. E) Binding energy between candidate drugs and SHP2 full‐length domain, catalytic region, and ΔSHP2 domain. F) HeLa cells were pretreated with DMSO, SHP099, or various compounds at 20 µM for 2 h before stimulation with EGF (10 ng mL^−1) for an additional 2 h. Cell lysates were subjected to immunoblotting with SHP2, p‐SHP2, and GAPDH antibodies. Data are from three independent experiments are presented. G) Spearman's correlation coefficient between drug‐related targets and KRAS mRNA in different types of tumors through the TCGA database. H) BCL2, TPO, RAF1, MCL1, MPL, and XIAP mRNA expression levels in LUAD tumors and adjacent tissues through the TCGA database. I) XIAP protein expression in RAS‐WT, NRAS‐mutant, HRAS‐mutant, and KRAS‐mutant cells. J) Effect of candidate drugs (10 µM) on colony formation in A549, NCI‐H2122, and NCI‐H1944 cells.
Figure 6 Embelin disrupts the SHP2 signaling complex in KRAS‐mutant NSCLC cells. A) HeLa cells were pretreated with SHP099 (20 µM) or different concentrations of embelin for 2 h and stimulated with EGF (10 ng mL^−1) for 2 h, the protein expression of RAS/MAPK signaling pathway in HeLa cells was detected. B) After treatment of embelin and SHP099 (10 µM) in NCI‐H2122 and A549 cells for 12 h, cell lysates were collected. One part was used to measure Gab1, Grb2, and SOS1 expression, and the other part underwent IP with SHP2 antibody. Then, binding of Gab1, Grb2, and SOS1 with SHP2 was detected. C) After treatment of embelin and SHP099 (10 µM) for 24 h, the expression of Gab1, p‐Gab1, Grb2, and SOS1 proteins in A549 and NCI‐H2122 cells were detected. […] Co‐localization of these proteins with SHP2 was detected using IF. […]
After given treatment, cells were lysed by ice bath with radio-immunoprecipitation assay (RIPA) buffer containing 1% phenylmethylsulphonyl fluoride (PMSF), and the supernatant was collected by centrifugation, and the protein concentration was subsequently determined using a BCA Protein Assay Kit. […]

Assay [2] concerns A549 and NCI‐H2122 cells. Briefly: Cell invasion assay. It is filed as cell-based, human. The following applies: embelin 1 and 2.5 µM; 24 h. How it is done: NCI-H2122 and A549 cells were pre-starved in serum-free medium for 24 h and resuspended in serum-free medium containing 5 mg mL-1 BSA. The cell suspension was added to Transwell chambers at a density of 5×105 mL-1, and RPMI-1640 or Ham F-12K medium containing 10% FBS was added to the bottom of the Transwell chambers.
Subsequently, drugs were added to the chambers and incubated at 37 °C for 48 h and cells were then fixed with 4% neutral formaldehyde for 40 min and stained with 0.1% crystal violet for 60 min. The chamber was washed with triple-distilled water, and images were collected using an inverted microscope. […]
Depending on the molecular weight of the proteins, different concentrations of sodium dodecyl-sulfate polyacrylamide gel electrophoresis (SDS-PAGE) separator gels were prepared for protein electrophoresis. Equal amounts of proteins were sampled and subjected to SDS-PAGE gel electrophoresis; at the end of electrophoresis, the proteins were transferred to nitrocellulose (NC) membranes. The NC membrane was blocked with 5% skim milk and covered with a specific primary antibody overnight at 4 °C, in which the primary antibody was diluted at a ratio of 1:500–1:5000. The NC membrane was […]

For `CC1(N)CCN(c2cnc(-c3cccc(Cl)c3Cl)c(N)n2)CC1` [SHP099], in assay [1], the “effect on EGF-induced phosphorylation of SHP2 (Y542 and Y580) and ERK” value is listed as “significantly inhibited these phosphorylation levels”. Besides, the “effect on invasive ability” value in assay [2] is “significantly inhibited the invasive ability”.

For the molecule `O=C1Nc2ccc(I)cc2/C1=C/c1cc(Br)c(O)c(Br)c1` [S2872, GW5074], the “effect on the level of SHP2 phosphorylation” value in assay [1] is “significantly inhibited SHP2 phosphorylation”.

Consider `CCCCCCCCCCCC1=C(O)C(=O)C=C(O)C1=O` [Embelin], for which, in assay [1], the “effect on the level of SHP2 phosphorylation” value is “significantly inhibited SHP2 phosphorylation”; the “effect on EGF-induced phosphorylation of SHP2 (Y542 and Y580) and ERK” value was “significantly inhibited these phosphorylation levels”. Further, the “effect on invasive ability” value in assay [2] was “significantly inhibited the invasive ability”.
